Experimental data published in US8664251B1, “Ryanodine receptor inhibitors for treatment of T-cell mediated disorders” (The Regents of the University of California, priority 2009, dated 2014).

What was measured:
[1] = tested on: activated human T cells; assay: Fura-2 calcium imaging in activated human T cells; assay type: cell-based; details: for [Ca^2+]i elevation evoked by readdition of extracellular Ca^2+ ([Ca^2+]SOCE): activated T cells preincubated 30 min with 500 μM Ry or 30 μM Da, p<0.01, n=7
Description: (§1) All studies involving human subjects were performed after approval by UC Davis Institutional Review Board and after all subjects gave written informed consent. Resting CD3^+ human lymphocytes were isolated from the peripheral blood of healthy consented adults using RosetteSep™ human lymphocyte enrichment kit (Stem Cell Tech.) following the manufacturer's instructions. Resting T cells were resuspended at 0.5−1×10^6 cells/ml in […] medium supplemented with 10 mM HEPES, 10% fetal bovine serum, 2% L-glutamine, 2% vitamins solution, 1% RPMI amino acids solution, and 0.01% β-mercaptoethanol and maintained in suspension in 5% CO2 at 37° C. Resting T cells were activated on the day of isolation by incubation with either PHA ([…]) or anti-CD3 antibody coated onto the tissue culture plates and soluble anti-CD28 antibody (5 m/ml; BD Biosciences). Resting T cells were taken for analysis on the day of isolation, whereas activated T cells were tested 4-5 days after activation.
Cell cultures and chemicals were as described in the Example 1. Before experiment, cells were plated on poly-l-lysine-coated glass-bottom clambers and then loaded with 1 μM fura-2/AM and pluronic F-127 for 5 min in modified Tyrode solution containing (in mM): 130 NaCl, 5.6 KCl, 1 MgCl2, 2 CaCl2, 10 HEPES, 10 D-glucose; pH 7.3. After washing, cells were incubated for additional 30 min at 37° C. […] In nominally Ca^2+-free solution, Ca^2+ was omitted.
Fluorescence images were acquired from adherent cells using a SenSys CCD camera (Roper Scientific, Tucson, Ariz.) and a 40× oil immersion Zeiss objective on a Zeiss Axiovert 200 inverted microscope (Thornwood, N.Y.). Lambda DG-4 filter changer (Sutter Instrument, Novato, Calif.) was used for switching between 340 and 380 nm excitation wavelengths. All experiments were performed at room temperature. Solution exchange was performed via a gravity-driven perfusion system. Solution exchange in the recording chamber was completed within 5 s. […] Unless otherwise indicated, in each experiment changes in [Ca^2+]i were recorded from 15-20 cells and then averaged.

[2] = tested on: resting human T cells; assay: Fura-2 calcium imaging in resting human T cells; assay type: cell-based; details: resting T cells preincubated 30 min with 30 μM Da or 500 μM Ry; CPA then Ca^2+ readdition
Description: as §1
Cell cultures and chemicals were as described in the Example 1. […]
Fluorescence images were acquired from adherent cells using a SenSys CCD camera (Roper Scientific, Tucson, Ariz.) and a 40× oil immersion Zeiss objective on a Zeiss Axiovert 200 inverted microscope (Thornwood, N.Y.). […] Unless otherwise indicated, in each experiment changes in [Ca^2+]i were recorded from 15-20 cells and then averaged.

[3] = tested on: Jurkat T cells; assay: CFSE proliferation assay, Jurkat T cells; assay type: cell-based, human; details: 400 μM Ry or 30 μM Da, 72 hours
Description: (§2) Cell cultures and chemicals were as described in the Example 1. Proliferation assay—Cell division track assay was conducted using carboxyfluorescein succinimidyl ester (CFSE) proliferation kit (Molecular probes). Stock solution of CFSE (4 mM) was prepared in DMSO. Cells were washed, resuspended in PBS containing 4 μM CFSE at density 1×10^6 cells/ml, and incubated at 37° C. for 10 min. Labeling was quenched by adding 5× volume of RPMI 1640 culture media containing 10% FBS. After washing 3 times with RPMI 1640+10% FBS, cells were placed into FBS-free cell culture media to abolish cell division and kept overnight in 5% CO2 at 37° C. After overnight incubation, the CFSE-labeled cells were pellet down and fraction of them (˜50000) were fixed with 1% paraformaldehyde in PBS and analyzed by flow cytometry to establish the CFSE fluorescence profile of undivided cells. […] Fluorescence intensity was measured at 488 nm using FACScan flow cytometer and CellQuest software (Becton Dickinson Bioscience, Mountain View, Calif.). The number of cell divisions was calculated using FlowJo software (Tree Star Inc, Ashland, Oreg.). […]
(§3) Freshly isolated CD3^+ resting human T cells or Jurkat T cells were loaded with CFSE and fraction of them was fixed with 1% paraformaldehyde in PBS and analyzed by flow cytometry to establish the CFSE fluorescence profile of undivided cells (time 0). […]

[4] = tested on: human T cells; assay: CFSE proliferation assay, human T cells activated with anti-CD3/CD28 Ab; assay type: cell-based; details: 400 μM Ry or 30 μM Da; anti-CD3/CD28 Ab activation
Description: as §2, §3

[5] = tested on: Jurkat T cells; assay: IL-2 production assay (ELISA), PHA-stimulated Jurkat T cells; assay type: cell-based, human; details: Ry 400 μM or Da 30 μM applied 30 min prior to PHA, 24 hours, p<0.01, n=6
Description: Jurkat T cells were washed 3 timed with PBS and resuspended in FBS-free cell culture media at density 0.8×10^6 cells/ml and seeded into 96 well tissue culture plate (0.4 ml per well) and then stimulated with […] mitogenic lectin phytohaemagglutinin P (PHA). Some cells were pre-incubated for 30 min at 37° C. with, Ry (400 μM), or dantrolene (30 μM) prior to stimulation with PHA. After 24 hours of incubation, cells culture supernatants were collected and contents of IL-2 was determined by ELISA using Quantikine kits (R&D systems, Minneapolis, Minn.) according to manufacturer instructions.

[6] = tested on: murine T cell; details: cited from earlier work
[7] = tested on: murine T cell; details: murine T cells; cited from earlier work
[8] = tested on: Jurkat T cells; assay: Fura-2 calcium imaging in Jurkat T cells; assay type: cell-based, human
Description: Cell cultures and chemicals were as described in the Example 1. Before experiment, cells were plated on poly-l-lysine-coated glass-bottom clambers and then loaded with 1 μM fura-2/AM and pluronic F-127 for 5 min in modified Tyrode solution containing (in mM): 130 NaCl, 5.6 KCl, 1 MgCl2, 2 CaCl2, 10 HEPES, 10 D-glucose; pH 7.3. After washing, cells were incubated for additional 30 min at 37° C. Some cells were incubated in Modified Tyrode solution containing 400 μM Ry, 30 μM dantrolene, or vehicles (methanol or, ethanol, or DMSO) alone for 30 min at 37° C. In nominally Ca^2+-free solution, Ca^2+ was omitted.
Fluorescence images were acquired from adherent cells using a SenSys CCD camera (Roper Scientific, Tucson, Ariz.) and a 40× oil immersion Zeiss objective on a Zeiss Axiovert 200 inverted microscope (Thornwood, N.Y.). Lambda DG-4 filter changer (Sutter Instrument, Novato, Calif.) was used for switching between 340 and 380 nm excitation wavelengths. All experiments were performed at room temperature. Solution exchange was performed via a gravity-driven perfusion system. Solution exchange in the recording chamber was completed within 5 s. The vehicles-containing solutions (methanol or DMSO) were applied in place of the drugs in all control experiments. Data acquisition was performed using MetaFluor v7.0 software (Universal Imaging, Downingtown, Pa.). [Ca^2+]i values were estimated from fura-2 calibration as described previously (Grynkiewicz, G., Poenie, M., and Tsien, R. Y. (1985) J Biol Chem 260(6), 3440-3450). Kd was taken as 248 nM (Fanger, C. M., Neben, A. L., and Cahalan, M. D. (2000) J Immunol 164(3), 1153-1160). Unless otherwise indicated, in each experiment changes in [Ca^2+]i were recorded from 15-20 cells and then averaged.

[9] = tested on: Jurkat T cells; assay: Manganese quench of fura-2 fluorescence (divalent cation influx via SOC channels); assay type: cell-based, human; details: Jurkat T cells preincubated 30 min with 400 μM Ry; with or without 30 μM CPA; n=5
Description: Because Mn^2+ readily passes through SOC channels (Missiaen, L., Declerck, I., Droogmans, G., Plessers, L., De Smedt, H., Raeymaekers, L., and Casteels, R. (1990) J Physiol 427, 171-186) and is unlikely to be transported from the cytosol (Chiesi, M., and Inesi, G. (1980) Biochemistry 19(13), 2912-2918; Chiesi, M., and Inesi, G. (1981) Arch Biochem Biophys 208(2), 586-592), the rate of fura-2 quenching in the presence of Mn^2+ was used as a measure of divalent cation influx into the bulk cytoplasm in intact cells. The extracellular solution used in all Mn^2+ quench experiments contained (in mM): 130 NaCl, 5.6 KCl, 1 MgCl2, 0.3 CaCl2, 0.5 MnCl2, 10 HEPES, 10 D-glucose; pH 7.3. Changes in Ca^2+-independent fluorescence due to Mn^2+ quench were determined using method described by Zhou & Neher (Zhou, Z., and Neher, E. (1993) J Physiol 469, 245-273). Briefly, background corrected fura-2 fluorescence excited at 340 nm (F340) was plotted against background corrected fura-2 fluorescence excited at 380 nm (F380) during the initial 10 seconds following application of 30 μM cyclopiazonic acid (CPA). The slope of the F340 versus F380 relationship equals the ‘isocoefficient’ α. The fluorescence value, Fi, which is unaffected by changes in [Ca^2+]i, was determined as: […]. […]

Compound | Ca^2+ liberation from the ryanodine-sensitive store ([1]; caffeine 20 mM, activated human T cells, normal Tyrode solution) | time courses of changes in [Ca^2+]i [2] | [Ca^2+]i elevation evoked by readdition of extracellular Ca^2+ ([Ca^2+]SOCE) [1] | Jurkat T cell proliferation (CFSE fluorescence profile) [3] | normal human activated T cell proliferation (CFSE fluorescence profile) [4] | PHA-induced IL-2 production [5] | murine T cell proliferation following TCR stimulation [6] | IL-2 production following TCR stimulation [7] | PHA-induced [Ca^2+]i transients in the absence of extracellular Ca^2+ ([8]; Jurkat T cells preincubated with 400 μM Ry) | CPA-induced [Ca^2+]i transients following PHA in the absence of extracellular Ca^2+ ([8]; Jurkat T cells preincubated with 400 μM Ry, 30 μM CPA) | reduction of maximal amplitudes of [Ca^2+]i transients during Ca^2+ readdition following TCR stimulation ([8]; Jurkat T cells preincubated with 400 μM Ry, PHA then 0.5 mM Ca^2+ readdition) [%] | [Ca^2+]i transients evoked by Ca^2+ readdition ([Ca^2+]SOCE) ([8]; Jurkat T cells preincubated with Ry, 2 mM Ca^2+ readdition after CPA, p<0.01, n=6) | store refilling (CPA2/CPA1 ratio) ([8]; Jurkat T cells preincubated with Ry, p<0.01, n=6) | Ca^2+ release on extracellular (acute) application ([8]; Ry 400 applied in nominally Ca^2+-free extracellular solution, Jurkat T cells, n=5) | divalent cation influx (Mn^2+ quench of fura-2 fluorescence) [9]
Cn1c(=O)c2c(ncn2C)n(C)c1=O [caffeine] | produced Ca^2+ liberation |  |  |  |  |  |  |  |  |  |  |  |  |  | 
O=C1CN(N=Cc2ccc(-c3ccc([N+](=O)[O-])cc3)o2)C(=O)N1 [dantrolene, 1-[[[5-(4-nitrophenyl)-2-furanyl]methylene]amino]-2,4-imidaz olidinedione] |  | did not affect | reduced | inhibit | inhibit | significantly inhibited | inhibit | inhibit |  |  |  |  |  |  | 
N.N.N.N.N.N.N.N.N.N.N.N.N.N.[Cl-].[Cl-].[Cl-].[Cl-].[Cl-].[Cl-].[O-2].[O-2].[Ru+3].[Ru+3].[Ru+4] [ruthenium red] |  |  |  |  |  |  | inhibit | inhibit |  |  |  |  |  |  | 
ryanodine |  | did not affect | reduced | inhibit | inhibit | significantly inhibited |  |  | did not significantly affect | did not significantly affect | 42 | significantly downregulated | facilitated store refilling | does not induce Ca^2+ release | does not induce Ca^2+ release (FIG. 2 D) or affect divalent ction influx
